Reference: US6664271B1, “Immunopotentiator agents” (Eli Lilly and Company, priority 1999, dated 2003)

Test system: chicken leukocytes
Assay: cells
Format: cell-based
Details: for minimal effective concentration: Gallus gallus, Leukocyte, read-out: MSC (Minimum Stimulatory Concentration)
Description: Various compounds of Formula I were evaluated for in vitro T-lymphocyte blastogenic activity with chicken leukocytes according to the steps described in the following procedure:
(a) Exsanguination step. The leukocytes were obtained from 3-6 week old Hubbard/Peterson broiler chickens. Initially, the chickens were rendered unconscious in a CO2 chamber. The chickens were then exsanguinated via cardiac puncture. In the exsanguination procedure, a syringe was connected to a needle, and the needle was inserted into the area at the base of the neck under the “V” formed by the breast and sternum. After the needle was properly inserted, continuous vacuum was applied to a syringe (connected to the needle) by pulling back on the plunger. It is important to promptly carry out this withdrawal action, because there is only a 10-15 seconds time period after the blood has starting flowing into the syringe before the blood coagulates, and becomes unusable. As soon as the syringe is full (or prior to complete filling if too much time has elapsed such that the blood begins to coagulate), the whole uncoagulated blood is transferred to a tube having the anticoagulant EDTA therein. The tube is then rotated to mix the whole blood and the EDTA. Alternatively, the whole blood can be withdrawn directly into a vacuum container already having EDTA therein, rather than into a syringe.
(b) Leukocyte isolation step. Numerous methods for isolating leukocytes from (uncoagulated) whole blood are known in the art. In a preferred method, the sterile whole blood was combined with methylcellulose (1.5:1). Any blood containing clots was discarded. The mixture was centrifuged at 30×g for ten minutes (300 rpm on Beckman GS-6R centrifuge). The top layer (leukocytes in supernatant) was decanted into a sterile 50 ml conical tube, while taking care to prevent contamination of the sample by red blood cells. The decanted layer was then centrifuged at 200×g for ten minutes (1500 rpm on the Beckman GS-6R centrifuge). The supernatant liquid was discarded, and the resulting cell “pellet” was retained.
The cells were then washed in a solution containing 10 ml PBS (phosphate buffered saline) and Gentamycin (gentamicin sulfate) at a concentration of 50 μg/ml. This solution was centrifuged at 100×g (1000 rpm on the Beckman centrifuge) for five minutes, and the supernatant liquid was discarded. The washing step (including the centrifuging at 100×g) was repeated to ensure complete removal of the methylcellulose. The use of media such as DMEM ([…]) was avoided in the washing steps, since such media may cause agglutination of the white blood cells. Finally, the cells were then suspended in an appropriate media, such as RPMI 1640 tissue cell culture medium, supplemented with phenol red, NaHCO3, and L-Glutamide. Supplemented RPMI 1640 is available from Sigma-Aldrich Chemical Co.
(c) Cell counting and cell viability step. The cells were counted and checked for viability using the Trypan Blue method of exclusion. 0.1 ml of the cell suspension was placed in a 4-5 ml small culture tube along with 0.7 ml HBSS (Hank's Buffered Saline Solution), available from Sigma-Aldrich, and 0.2 ml of a 0.4% solution of aqueous Trypan Blue stain, available from GIBCO BRL, of Grand Island, N.Y. The components were mixed thoroughly but gently, and allowed to sit for 5 minutes (no longer than 15 minutes). The components should not be exposed to the stain for extended periods of time, because such extended exposure may permit viable cells, as well as non-viable cells, to take up dye.
A cover slip was placed on a Bright Line hemacytometer, available from Howser Scientific, and 10 μl of the mixture from the tube was transferred to each chamber. Non-viable cells appear blue under a microscope. The viable cells in one of the 16-square corners of the hemacytometer were then counted. […]

[1] = chicken leukocytes, read at 72 hours
[2] = Hubbard/Peterson broiler, chicken, 72 h

Row | SMILES | MSC (Minimum Stimulatory Concentration) [1] | minimal effective concentration [1] | MTC (Maximum Tolerable Concentration prior to causing cytotoxicity) [2] | MTC (Maximum Tolerable Concentration prior to causing cytotoxicity) [1]
1 | CCOC(=O)[C@H]1CCCN(C(=O)C(C)c2ccccc2)C1 (mixture of isomers) [Example 58, (S)±Ethyl 1-(2-Phenylpropionyl)-3-piperidinecarboxylate] | 1 µg/mL | – | – | –
2 | CCOC(=O)C1CCCN(C(=O)c2ccccc2)C1 (stereo not drawn) [Example 1, Ethyl 1-Benzoyl-3-piperidinecarboxylate] | – | 0.1 µg/mL | 10 µg/mL | –
3 | CCOC(=O)C1CCCN(C(=O)c2ccsc2)C1 (stereo not drawn) [Example 2, Ethyl 1-(3-thiophenecarbonyl)-3-piperidinecarboxylate] | – | 1 µg/mL | 1 µg/mL | –
4 | CCOC(=O)C1CN(C(=O)c2ccccc2)CCC1=O (stereo not drawn) [Example 3, Ethyl 1-Benzoyl-4-oxo-3-piperidinecarboxylate] | – | 0.01 µg/mL | 1 µg/mL | –
5 | CCOC(=O)C1CCCN(C(=O)OCc2ccccc2)C1 (stereo not drawn) [Example 4, Ethyl 1-Benzyloxycarbonyl-3-piperidinecarboxylate] | – | 1 µg/mL | 10 µg/mL | –
6 | CCOC(=O)C1CCCN(C(=O)Cc2ccccc2)C1 (stereo not drawn) [Example 6, Ethyl 1-Phenylacetyl-3-piperidinecarboxylate] | 0.1 µg/mL | – | – | 1 µg/mL
7 | CCOC(=O)C1CCCN(C(=O)c2ccc(F)cc2)C1 (stereo not drawn) [Example 7, Ethyl 1-(4-Fluorobenzoyl)-3-piperidinecarboxylate] | – | 0.01 µg/mL | 10 µg/mL | –
8 | CCOC(=O)C1CCCN(C(=O)c2cccs2)C1 (stereo not drawn) [Example 8, Ethyl (2-Thiophenecarbonyl)-3-piperidinecarboxylate] | 0.1 µg/mL | – | – | –
9 | CCOC(=O)C1CCCN(C(=O)Cc2cccs2)C1 (stereo not drawn) [Example 9, Ethyl 1-(2-thiopheneacetyl)-3-piperidinecarboxylate] | – | 0.01 µg/mL | 1 µg/mL | –
10 | CCOC(=O)C1CN(C(=O)OCc2ccccc2)CCC1=O (stereo not drawn) [Example 10, Ethyl 1-Benzyloxycarbonyl-4-oxo-3-piperidinecarboxylate] | – | 0.01 µg/mL | 0.1 µg/mL | –
11 | CCOC(=O)C1CN(C(=O)c2ccc(F)cc2)CCC1=O (stereo not drawn) [Example 12, Ethyl 1-(4-Fluorobenzoyl)-4-oxo-3-piperidinecarboxylate] | – | 0.01 µg/mL | 0.1 µg/mL | –
12 | CCCCOC(=O)C1CCCN(C(=O)c2ccccc2)C1 (stereo not drawn) [Example 13, n-Butyl 1-Benzoyl-3-piperidinecarboxylate] | – | 0.01 µg/mL | 1 µg/mL | –
13 | CCNC(=O)C1CCCN(C(=O)c2ccccc2)C1 (stereo not drawn) [Example 17, N-Ethyl 1-Benzoyl-3-piperidinecarboxamide] | – | 1 µg/mL | 10 µg/mL | –
14 | CCCCCCCCNC(=O)C1CCCN(C(=O)c2ccccc2)C1 (stereo not drawn) [Example 18, N-(n-Octyl) 1-Benzoyl-3-piperidinecarboxamide] | – | 0.01 µg/mL | 0.1 µg/mL | –
15 | CCNC(=O)C1CCCN(C(=O)Cc2cccs2)C1 (stereo not drawn) [Example 20, N-Ethyl 1-(2-Thiopheneacetyl)-3-piperidinecarboxamide] | – | 0.1 µg/mL | 1 µg/mL | –
16 | CCOC(=O)C1CCCN(C(=O)CCc2cccs2)C1 (stereo not drawn) [Example 23, Ethyl 1-(3-(2-Thienyl)propionyl)3-piperidinecarboxylate] | – | 0.1 µg/mL | 1 µg/mL | –
17 | CN(C)CCNC(=O)C1CCCN(C(=O)Cc2cccs2)C1 (stereo not drawn) [Example 25, 2-Dimethylaminoethyl 1-(2-thiopheneacetyl)-3-piperidinecarboxamide] | – | 0.1 µg/mL | 1 µg/mL | –

Row | SMILES | MSC (Minimum Stimulatory Concentration) [1] | minimal effective concentration [1] | MTC (Maximum Tolerable Concentration prior to causing cytotoxicity) [2] | MTC (Maximum Tolerable Concentration prior to causing cytotoxicity) [1]
18 | CCOC(=O)CC1CCCN(C(=O)Cc2cccs2)C1 (stereo not drawn) [Example 27, Ethyl 1-(2-Thiopheneacetyl)-3-piperidinylacetate] | – | 1 µg/mL | 1 µg/mL | –
19 | CCOC(=O)CC1CCCCN1C(=O)Cc1cccs1 (stereo not drawn) [Example 28, Ethyl 1-(2-Thiopheneacetyl)-2-piperidinylacetate] | 0.1 µg/mL | – | – | –
20 | CCOC(=O)C1CCC(C)N(C(=O)Cc2cccs2)C1 (stereo not drawn) [Example 33, Ethyl 1-(2-Thiopheneacetyl)-6-methyl-3-piperidinecarboxylate] | – | 0.1 µg/mL | 10 µg/mL | –
21 | CCOC(=O)C1CCC[N+](C)(Cc2ccccc2)C1.[I-] (stereo not drawn) [Example 35, Ethyl 1-Benzyl-3-piperidinecarboxylate 1-Methiodide] | 10 µg/mL | – | – | –
22 | CCOC(=O)C1CCCN(C(=O)c2ccc(-c3ccccc3)cc2)C1 (stereo not drawn) [Example 36, Ethyl 1-(4-Phenylbenzoyl)-3-piperidinecarboxylate] | – | 0.1 µg/mL | 10 µg/mL | –
23 | O=C(O)[C@H]1CCCN(C(=O)Cc2cccs2)C1 [Example 37, (S)-1-(2-Thiopheneacetyl)-3-piperidine Carboxylic Acid] | – | 10 µg/mL | 1000 µg/mL | –
24 | COC(=O)C1CN(C(=O)OCc2ccccc2)CCC1=O (stereo not drawn) [Example 38, Methyl 1-Benzyloxycarbonyl-4-oxo-3-piperidinecarboxylate] | – | 1 µg/mL | 1 µg/mL | –
25 | CCOC(=O)C1(C)CCCN(C(=O)c2ccccc2)C1 (stereo not drawn) [Example 39, Ethyl 1-Benzoyl-3-methyl-3-piperidinecarboxylate] | – | 1 µg/mL | 1 µg/mL | –
26 | CNC(=O)N1C2CCC1C(C(=O)OC)C(=O)C2 (stereo not drawn) [Example 40, 8-[(Methylamino)carbonyl]-3-oxo-8-azabicyclo[3.2.1]octane-2-carboxylic Acid, Methyl Ester] | – | 0.01 µg/mL | – | 10 µg/mL
27 | O=C(Cc1cccs1)N1CCCC(O)C1 (stereo not drawn) [Example 41, 1-(2-Thiopheneacetyl)-3-hydroxypiperidine] | – | 10 µg/mL | 100 µg/mL | –
28 | N.O=C(O)[C@H]1CCCN(C(=O)Cc2cccs2)C1 [Example 42, (S)-1-(2-Thiopheneacetyl)-3-piperidinecarboxylic Acid Ammonium Salt] | – | 1 µg/mL | – | 10 µg/mL
29 | CCOC(=O)C1CCCN(C(=O)CCc2ccccc2)C1 (stereo not drawn) [Example 43, Ethyl 1-(1-Phenylpropionyl)-3-piperidinecarboxylate] | 1 µg/mL | – | – | –
30 | CS(=O)(=O)OC1CCCN(C(=O)Cc2cccs2)C1 (stereo not drawn) [Example 44, 1-(2-Thiopheneacetyl)-3-(O-methanesulfonyl)piperidine] | 1 µg/mL | – | – | 10 µg/mL
31 | CCC(=O)OC1CCCN(C(=O)Cc2cccs2)C1 (stereo not drawn) [Example 46, 1-(2-Thiopheneacetyl)-3-(O-propionyl)piperidine] | 1 µg/mL | – | – | 10 µg/mL
32 | CCOC(=O)[C@H]1CCCN(C(=O)NCc2ccccc2)C1 [Example 48, (S)-Ethyl 1-(N-Benzylurea)-3-piperidinecarboxylate] | 10 µg/mL | – | – | –
33 | CCOC(=O)[C@H]1CCCN(C(=O)NC)C1 [Example 49, (S)-Ethyl 1-(N-Methylurea)-3-piperidinecarboxylate] | 1 µg/mL | – | – | 10 µg/mL
